In patent US20230270816A1, “COMBINATION OF ANTINEOPLASTIC ANTIBIOTICS AND BCL-2 INHIBITORS FOR THE TREATMENT OF NPM-1-DRIVEN ACUTE MYELOID LEUKEMIA (AML)” (INSERM (INSTITUTE NATIONAL DE LA SANTÉ ET DE LA RECHERCHE …, priority 2020, published 2023):
Where two headings read alike, the source gives them in different places. Starred links: 1 amine or outer side, 2 acyl side, 3 side chain; linkers in the order of their positions; H or OH if unused. Positions of bridges follow the written chain, without caps; N, C: chain ends. Non-standard residues stand in square brackets, D forms with d. Residues, ends and D or L forms follow the SMILES beside them. Chains are numbered I, II in the order given. Actinocin(9to1) = Cc1c2oc3c(C)ccc(C(=O)[*:1])c3nc-2c(C(=O)[*:2])c(N)c1=O; NMeV = CN[C@H](C(=O)O)C(C)C; Sar = CNCC(=O)O

Legend:
AML3 cells [1] = assay: Mitochondrial network and function in AML3 cells; format: cell-based
From the text: (§1) Conversely, we used Thenoyl-trifluoroacetone (TTFA) a well-characterized inhibitor of mitochondrial complex II and major inducer of ROS.

complex II = biological target: T1, complex II (Homo sapiens, UniProt P31040); assay: Electron transport chain complex activity; format: biochemical; conditions: but not complex I or IV; primarily in NPM1c-expressing cells
T1 construct: endogenous in cells; host or cells: NPM1c-expressing cells (not further specified; the same paragraph mentions AML3, AML2-NPM1c and NPM1c-ES cells)
T1 sequence (P31040 43-664): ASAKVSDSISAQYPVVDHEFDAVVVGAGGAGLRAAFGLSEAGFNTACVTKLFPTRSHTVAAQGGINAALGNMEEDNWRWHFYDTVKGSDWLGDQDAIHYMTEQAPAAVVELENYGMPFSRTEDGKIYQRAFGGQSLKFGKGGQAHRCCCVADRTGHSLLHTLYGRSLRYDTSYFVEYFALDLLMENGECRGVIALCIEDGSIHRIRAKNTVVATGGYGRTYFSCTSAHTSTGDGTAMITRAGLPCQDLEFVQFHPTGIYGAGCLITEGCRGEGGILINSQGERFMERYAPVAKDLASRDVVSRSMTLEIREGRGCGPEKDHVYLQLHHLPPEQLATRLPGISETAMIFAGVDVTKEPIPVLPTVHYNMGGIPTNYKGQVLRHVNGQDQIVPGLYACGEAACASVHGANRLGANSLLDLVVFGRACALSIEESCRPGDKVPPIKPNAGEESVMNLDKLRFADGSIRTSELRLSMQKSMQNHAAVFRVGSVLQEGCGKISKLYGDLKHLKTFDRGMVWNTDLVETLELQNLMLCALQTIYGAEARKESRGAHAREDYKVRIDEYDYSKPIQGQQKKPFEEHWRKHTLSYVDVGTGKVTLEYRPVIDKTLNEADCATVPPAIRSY
T1 sequence (P21912 29-280 partner): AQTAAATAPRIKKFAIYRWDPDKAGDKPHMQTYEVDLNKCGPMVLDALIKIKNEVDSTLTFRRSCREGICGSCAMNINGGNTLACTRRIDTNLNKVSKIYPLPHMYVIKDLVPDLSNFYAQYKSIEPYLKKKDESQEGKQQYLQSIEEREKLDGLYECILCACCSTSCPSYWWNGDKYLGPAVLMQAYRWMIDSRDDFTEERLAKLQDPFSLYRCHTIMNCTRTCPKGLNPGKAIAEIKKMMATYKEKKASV
T1 sequence (Q99643 30-169 partner): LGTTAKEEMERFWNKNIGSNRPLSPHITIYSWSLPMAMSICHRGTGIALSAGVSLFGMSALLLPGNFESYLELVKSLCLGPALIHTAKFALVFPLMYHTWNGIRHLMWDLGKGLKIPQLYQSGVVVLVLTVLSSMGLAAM
T1 sequence (O14521 57-159 partner): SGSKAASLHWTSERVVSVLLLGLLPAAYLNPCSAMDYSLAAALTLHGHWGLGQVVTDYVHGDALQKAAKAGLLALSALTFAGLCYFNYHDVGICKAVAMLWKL

AML3 cells [2] = assay: Senescence markers and clonogenic activity in AML3 cells; format: cell-based; conditions: for clonogenic activity: AML3 cells
From the text: as §1

leukemic blasts = assay: AML patient treated with a single ActD course; format: in vivo
[3] = system: primary human NPM1c-AML blasts; assay: Immune-deficient mice xenografted with primary human NPM1c-AML blasts; format: in vivo
From the text: FIG. 2: ActD enhances Venetoclax anti-leukaemic effects. Response to ActD and/or Venetoclax in a transplantable AML model initiated by NPM1c+IDH1^R132H mutation. A, GFP abundance in bone marrow samples collected at treatment interruption and B, survival curve, n=2. C, abundance of human AML cells in xenografted mice treated for two weeks. Combined therapy induces AML regression.
(§2) We first assessed ActD response in primary cells.
(§3) We therefore explored the ActD/Venetoclax interaction in different NPM1c-driven AML models in vivo. […] Thus, ActD and Venetoclax dramatically synergized to clear AMLs in vivo.

PML NBs = assay: PML nuclear body (NB) reformation ex vivo; format: cell-based; conditions: for effect of ROS scavenger on ActD NB-restoration: AML2-NPM1c cells
From the text: as §1

TP53 [4] = system: TP53
NPM1c-AML = conditions: Half of NPM1c-AML patients; single agent; cited from earlier work
murine NPM1c-driven AML = assay: Murine NPM1c-driven AML model; conditions: mouse, in vivo
From the text: as §2, §3

TP53 [5] = assay: Doxorubicin mitochondrial rounding and TP53 activation; format: cell-based
From the text: Targeting mitochondrial function by antibiotics was proposed as a therapeutic option for cancer^35,36 and mitochondrial status modulates chemotherapy response^37,38. Actinomycin D drives mitochondrial alterations prior to detectable activation of the ribosomal or DNA damage checkpoints. Actinomycin D inhibits complex II activity, which may reflect its structural similarity with FAD, one of its electron transporters. This may explain how ActD induces ROS, immediate early response genes, sensitizes cells to apoptosis or initiates immunogenic cell death^39. Complex II is important in hematopoietic progenitors^40, and regulated by PML^41, contributing to ActD therapeutic index in AML blasts. In vivo, ActD triggered features of mitochondria-induced senescence^26. Downstream of acute mitochondrial stress, our experiments reveal a key role of ROS signalling and PML/TP53 senescence (data not shown), drawing an unexpected similarity with acute promyelocytic leukemia, where NBs reformation drive response to arsenic therapy^12,42. In that respect, complex II poisoning has activity in APL models^43. […] Clinically, as both antineoplastic antibiotics (e.g. ActD) and BCL-2 inhibitors (e.g. Venetoclax) have remarkable clinical activity in NPM1c-AMLs, the dramatic synergy outlined here should rapidly be evaluated in patients.

AML2-NPM1c cells = assay: Growth of isogenic AML2-NPM1c / AML2-NPM1 cells; format: cell-based; conditions: AML2-NPM1c vs AML2-NPM1 cells; inhibition of JAK1/2 signalling
From the text: TFAM reduction may reflect transcriptional down-regulation of PGC1A by IFN signalling^16. Importantly, stable NPM1c expression drove PGC1α hyperacetylation resulting in its functional inactivation, possibly through PML NB downregulation (data not shown)^10. These altered mitochondria and release of mtDNA into the cytoplasm activate multiple downstream intracellular stress pathway, particularly IFN and NFKB targets (data not shown), at least in part through cGAS (cyclic GMP-AMP synthase) activation and cGAMP production (data not shown). Other stress pathways, such as oxidative stress or unfolded protein response were also activated (data not shown), resulting in decreased protein synthesis (data not shown). Western blot analyses comparing AML2-NPM1c to AML2-NPM1 cells validated activation of multiple stress pathways by the NPM1c oncogene, including the up-regulation of key TP53-repressed metabolic enzymes (data not shown). As expected, these mitochondrial alterations yielded decreased ATP/ADP+AMP or GTP/GDP+GMP ratios, reflecting metabolic stress (data not shown). Stress responses could directly or indirectly favour leukaemogenesis^20-22. […] These mitochondrial defects may constitute targetable intrinsic weaknesses and, for example, account for the exquisite clinical sensitivity of NPM1c-AMLs to Bcl2 antagonists^23.

[6] = leukemic blasts from peripheral blood

venetoclax
mitochondrial effects (AML3 cells [1]; AML3 cells, Venetoclax alone): induced mitochondrial fragmentation, reduction of mitochondrial membrane potential, production of ROS and leakage of mtDNA to the cytoplasm

Cc1c2oc3c(C)ccc(C(=O)N[C@@H]4C(=O)N[C@H](C(C)C)C(=O)N5CCC[C@H]5C(=O)N(C)CC(=O)N(C)[C@@H](C(C)C)C(=O)O[C@@H]4C)c3nc-2c(C(=O)N[C@@H]2C(=O)N[C@H](C(C)C)C(=O)N3CCC[C@H]3C(=O)N(C)CC(=O)N(C)[C@@H](C(C)C)C(=O)O[C@@H]2C)c(N)c1=O [ActD, actinomycin D] (I: T[dV]P[Sar][NMeV] / II: T[dV]P[Sar][NMeV]; ester I:1-I:C, II:1-II:C; linker I:N-II:N via Actinocin(9to1))
complex II activity (complex II): further inhibited the basal low level of complex II
clonogenic activity (AML3 cells [2]): loss of clonogenic activity
senescence signs (TP53 activation, p21, Serpine-1, cGAMP, SA-β-Gal) (AML3 cells [2]; NPM1c-positive AML3 cells): multiple signs of senescence
blast decrease (leukemic blasts; after a single course of daily ActD injections for 5 days): 10^4 fold
completion of in vivo reformation of PML NBs (leukemic blasts; [6]): ≤ 12 h
start of in vivo reformation of PML NBs (leukemic blasts; [6]): 6 h
leukemic burden ([3]; after 5 days of ActD therapy): dramatically reduced the leukemic burden
stabilization of human TP53 vs mouse Trp53 ([3]; two xenografted mice): rapidly triggered selective stabilization of human TP53
PML NB reformation (PML NBs; AML2-NPM1c, AML3 cells or NPM1c-transfected MEFs): very rapid NB reformation
PML NB restoration (PML NBs; primary NPM1c-AML blasts treated ex vivo): PML NB restoration was also observed
TP53 activation (TP53 [4]; AML3 cells, ex vivo, 5 nM): triggered rapid TP53 activation
TP53 stabilization (TP53 [4]; normal bone marrow progenitors in vivo or ex vivo, human or mouse primary fibroblasts (WI-38, MEFs) ex vivo, low doses): no significant TP53 stabilization
clinical response (NPM1c-AML): dramatic responses
AML response with leukaemia-selective TP53 activation (murine NPM1c-driven AML): AML regression and blast differentiation
mitochondrial network (AML3 cells [1]; AML3 and NPM1c-ES cells, as early as 1h): fragmented the mitochondrial network

O=C(CC(=O)C(F)(F)F)c1cccs1 [TTFA, Thenoyl-trifluoroacetone]
clonogenic activity (AML3 cells [2]): decreased clonogenic activity
NB formation (PML NBs; NPM1c-transfected stable GFP-PML-III MEFs): restored NB formation
mitochondrial superoxide (AML3 cells [1]; AML3 cells): massively induced mitochondrial superoxide

CC(=O)N[C@@H](CS)C(=O)O [N-acetyl cysteine]
effect of ROS scavenger on ActD NB-restoration (PML NBs): completely blocked

N[C@@H](CCC(=O)N[C@@H](CS)C(=O)NCC(=O)O)C(=O)O [glutathione]
effect of ROS scavenger on ActD NB-restoration (PML NBs): completely blocked

COc1cccc2c1C(=O)c1c(O)c3c(c(O)c1C2=O)C[C@@](O)(C(=O)CO)C[C@@H]3O[C@H]1C[C@H](N)[C@H](O)[C@H](C)O1 [Doxorubicin]
TP53 activation (TP53 [5]): PML-dependent, NPM1c-enhanced and NAC-reversible TP53 activation
mitochondrial morphology (TP53 [5]): triggered immediate mitochondrial rounding

N#CCNC(=O)c1ccc(-c2ccnc(Nc3ccc(N4CCOCC4)cc3)n2)cc1 [CYT387]
growth (AML2-NPM1c cells): inhibited growth, more potently in AML2-NPM1c than in AML2-NPM1 cells
